In patent US7014856B1, “Ganglioside-KLH conjugate vaccines plus OS-21” (Sloan-Kettering Institute for Cancer Research, priority 1993, dated 2006):
Where “and” joins values, the source holds several entries; their conditions need not be identical. Equal entries are not always repeated. Entries after “also recorded” stand apart in the source; their conditions may differ.

Legend:
[1] = test system: patients; assay: Toxicity in patients treated earlier with GM2 or GM2-KLH vaccines; assay type: in vivo, human
[2] = test system: melanoma patients; assay: Delayed-type hypersensitivity skin tests with GM2, GM2-HSA and KLH; assay type: in vivo, human; conditions: 25 micrograms intradermally at the fifth vaccination; 24 and 48 hours
Description: (§1) Enzyme-linked Immunosorbent Assay (ELISA) were performed as previously described for gangliosides (5). […] The titer was defined as the highest dilution yielding a corrected absorbance of 0.1 or greater. Immunostaining of gangliosides with monoclonal antibodies or human sera was performed after spotting on nitrocellulose strips as previously described (22). […] Twenty-five micrograms of each were diluted in 0.05 ml PBS and administered intradermally. Results were interpreted as described previously (5).

[3] = test system: ganglioside GM2; assay: Peak antibody titer against ganglioside GM2 by ELISA (Table 2); assay type: in vivo, human; conditions: peak titer against GM2 after immunization
[4] = test system: GM2; assay: ELISA for GM2 antibodies in patients receiving GM2-KLH conjugate vaccines (third series); assay type: in vivo, human
Description: Four vaccinations were administered intradermally into extremities with intact lymphatic drainage at two-week intervals, followed by two additional vaccinations at eight week intervals. Cyclophosphamide (Cytoxan, Mead Johnson and Co., Evansville, Ind.) 200 mg/m2 was administered intravenously to all patients 4 to 6 days prior to the first vaccination.
(§2) ELISA was performed as previously described (6). To control for nonspecific “stickiness”, immune sera were also tested on plates which were processed identically but to which no ganglioside had been added, and the reading was subtracted from the value obtained in the presence of ganglioside. The titer was defined as the highest dilution yielding a corrected absorbance of 0.1 or greater. Immunostaining of gangliosides with monoclonal antibodies or human sera was performed after spotting on nitrocellulose strips (14) or separation on HPTLC silica gel glass plates as previously described (3). Plates were developed in chloroform/methanol/water (0.25% CaCl2) 50:40:10 (v/v), and gangliosides were visualized by staining with resorcinol/HCl reagent or monoclonal antibodies.

[5] = test system: GM2; assay: Dot blot immune stain for GM2 antibodies (third series); assay type: in vivo, human
Description: as §2

[6] = test system: KLH; assay: ELISA for KLH antibodies (third series); assay type: in vivo, human
[7] = test system: GM2; assay: ELISA titer against GM2 (fourth series); assay type: in vivo, human
Description: as §1

[8] = test system: GM2; assay: Dot blot immune stain against GM2 (fourth series); assay type: in vivo, human; set-up: key: Reactions were graded 0, 1+, 2+ or 3+; Reactions were graded 0, 1+, 2+ or 3+; Reactions were graded 0, 1+, 2+ or 3+; Reactions were graded 0, 1+, 2+ or 3+
Description: as §1

[9] = test system: KLH; assay: IgG ELISA titer against KLH (fourth series); assay type: in vivo, human; conditions: No adjuvant
Description: as §1

[10] = test system: melanoma patients; conditions: six patients per group
[11] = test system: T antigen-KLH; assay: Preclinical adjuvant studies with KLH-conjugate vaccines such as T antigen-KLH; assay type: in vivo, mice
[12] = test system: QS-21; assay: ELISA for antibodies to QS-21; assay type: in vivo, human; conditions: after immunizations
Description: as §1

[13] = test system: melanoma patients; conditions: outpatient setting, s.c. with GM2-KLH
Description: Melanoma patients with AJCC Stage III or IV disease were considered eligible if all evidence of metastatic disease had been rejected within the last 8 months. None of the patients had received prior chemotherapy or radiation therapy. Patients were evaluated for toxicity at the time of each vaccination. In addition, patients were instructed to measure local reactions and to take their temperature.
The GM2/KLH solar ratio was approximately 800/1 and was supplied at a concentration of 0.57 mg conjugate per 0.5 ml normal saline. This represented one patient dose and contained 70 ug GM2, 500 ug KLH and 0.5 ml normal saline. QS-21 adjuvant, containing a saponin component isolated from Quillaja saponaria Molina tree bark, was provided by Cambridge Biotech Corp. (Worcester, Mass.). The purity of the QS-21 was determined to be ≧98% by analytical reverse phase HPLC. […] The vaccine (final volume 0.75 ml) was vortexed for 2–3 minutes and administered within 15 min. Four vaccinations were administered subcutaneously at two week intervals followed by two more at eight week intervals. Initially 12 patients were treated, 3 at each of the 4 QS-21 doses. […] Cyclophosphamide (Cytoxan, Mead Johnson and Co., Evansville, Id.) 200 mg/M^2 was administered IV to all patients 3–6 days prior to the first vaccination.

[14] = test system: mouse, cat and Rhesus monkey; conditions: doses as high as 125 ug per mouse; cited from earlier work

**Q.** For “II^3NeuAc-GgOse3Cer [GM2, reference compound]”, which “toxicity attributed to the substance” value [1] is on record?
**A.** The value was “No toxicity”.

**Q.** And the “reaction at skin test sites” value [2]?
**A.** Its value is “No erythema or induration”.

**Q.** For “11^3NeuAc-GgOse3Cer-keyhole limpet hemocyanin (KLH) [GM2-KLH]”, which “toxicity attributed to the substance” value [1] is on record?
**A.** The value was “pain and tenderness at vaccines sites lasting 48 hours”.

**Q.** And the “Antibody Titers by Elisa IgG” value [3]?
**A.** Its value is 0.

**Q.** What about the “Reciprocal GM2 antibody titers before immunization IgG” value ([4]; before immunization) of the same substance?
**A.** The value was 0.

**Q.** And the “median titers: reciprocal GM2 antibody titer after immunization (Peak) IgG” value ([4]; median, after immunization)?
**A.** Its value is 0.

**Q.** And the “median titers: reciprocal GM2 antibody titer after immunization (Peak) IgM” value ([4]; median, after immunization)?
**A.** Its value is 80.

**Q.** What about the “median titers: reciprocal GM2 antibody titer before immunization IgG” value ([4]; median, before immunization) of the same substance?
**A.** Its value is 0.

**Q.** What about the “median titers: reciprocal GM2 antibody titer before immunization IgM” value ([4]; median, before immunization) of the same substance?
**A.** Its value is 0.

**Q.** What about the “patients with 3+ reactivity of IgM antibodies against GM2” value [5] of the same substance?
**A.** The value was “two of six”.

**Q.** What about the “median titers: reciprocal KLH antibody titer after immunization (Peak) IgG” value [6] of the same substance?
**A.** The value was 120.

**Q.** What about the “Reciprocal median IgM antibody titer against GM2” value ([7]; GM2-KLH alone) of the same substance?
**A.** Its value is 80.

**Q.** What about the “median IgG antibody titer against GM2” value ([7]; GM2-KLH alone) of the same substance?
**A.** Its value is 0.

**Q.** And the “patients who produced IgM antibody” value ([7]; GM2-KLH alone)?
**A.** Its value is “Five of 6”.

**Q.** What about the “patients who produced IgG antibody (of low titer)” value ([7]; GM2-KLH alone, 6 patients) of the same substance?
**A.** Its value is 1.

**Q.** What about the “PEAK ELISA TITER AGAINST GM2 Pretreatment IgG” value ([7]; No adjuvant) of the same substance?
**A.** Its value is 0 (6).

**Q.** And the “induction of IgM and IgG antibody titers, 7 μg GM2 dose versus 70 μg dose” value ([7]; patients with advanced disease, 100 μg QS-21)?
**A.** Its value is “equally as effective”.

**Q.** What about the “median IgM dot blot reaction against GM2” value ([8]; GM2-KLH alone) of the same substance?
**A.** Its value is 2+.

**Q.** What about the “PEAK DOT BLOT IMMUNE SYSTEM RESPONSE AGAINST GM2 IgG” value ([8]; No adjuvant) of the same substance?
**A.** The value was 0 and 1+.

**Q.** What about the “PEAK DOT BLOT IMMUNE SYSTEM RESPONSE AGAINST GM2 IgM” value ([8]; No adjuvant) of the same substance?
**A.** The value was 2+ and 1+, and 0 and 3+,.

**Q.** What about the “median IgG dot blot reaction against GM2” value ([8]; no QS-21) of the same substance?
**A.** Its value is 0.

**Q.** And the “IgG ELISA TITER AGAINST KLH Pretreatment” value [9]?
**A.** The value was 0 (6).

**Q.** And the “local or systemic side effects” value [10]?
**A.** The value was “No local or systemic toxicity”.

**Q.** Which DTH ([11]; mice) does the source give for QS-21 here?
**A.** Its DTH is “potent DTH”.

**Q.** What about the IgG antibody titers ([11]; most mice, KLH-conjugate vaccine with QS-21) of the same substance?
**A.** Its IgG antibody titers is “over 1/4000”.

**Q.** And the “antibodies against QS-21” value [12]?
**A.** The value was “No antibodies against QS-21 were detected; also recorded: no significant increase in antibody to QS-21”.

**Q.** And the “probable MTD per vaccination” value [13]?
**A.** Its value is 200 µg.

**Q.** And the toxicity [14]?
**A.** The toxicity was “no clear toxicity”.
